Test results taken from patent US20050266106A1, “Use of fermented wheat germ extract as anti-inflammatory agent” (priority 2002, published 2005).

Test system: adjuvant arthritis (AA)
Experiment: histological studies of joints of AA rats
Assay type: in vivo
Procedure: The affected joints of the right hind foot pad together with the epiphyses of the bones and the surrounding fibrous and muscular tissues were fixed in buffered neutral 4% formalin. Decalcification was performed by using EDTA and the samples were embedded into paraffin. 8 μm thin longitudinal sections were cut and the sections were stained with hemotoxiline (H) and eosine (E). In the selected positive control and in the treated cases an immunoperoxidase reaction was performed to show CD4 and CD8 positive T-lymphocytes. The used antibody was the product of Santa Cruz (Santa Cruz, Calif., USA), applied in 1:100 dilution.
There was no significant difference between the groups receiving 24-hour and 14-day pretreatment, respectively.

| SMILES | Histological grade (average 1 to 3) of inflammatory infiltrates (2 × 0.05 mg/kg/day, 14-day pretreatment) | Histological grade (average 1 to 3) of inflammatory infiltrates (2 × 0.05 mg/kg/day, 24-hour pretreatment) | Histological grade (average 1 to 3) of inflammatory infiltrates (2 × 0.5 mg/kg/day, 14-day pretreatment) | Histological grade (average 1 to 3) of inflammatory infiltrates (2 × 0.5 mg/kg/day, 24-hour pretreatment) |
| --- | --- | --- | --- | --- |
| C[C@@H]1C[C@H]2[C@@H]3CCC4=CC(=O)C=C[C@]4(C)[C@@]3(F)[C@@H](O)C[C@]2(C)[C@@]1(O)C(=O)CO [Dexamethasone] | 1.2 | 1.4 | – | – |
| COc1ccc2c(c1)c(CC(=O)O)c(C)n2C(=O)c1ccc(Cl)cc1 [Indomethacin] | – | – | 1.2 | 1.0 |
